As a reminder, the IC50 is the concentration that gives 50% inhibition. Low values mean higher potency, high ones lower potency.

Chain of human SGLT2 (P31639 whole entry): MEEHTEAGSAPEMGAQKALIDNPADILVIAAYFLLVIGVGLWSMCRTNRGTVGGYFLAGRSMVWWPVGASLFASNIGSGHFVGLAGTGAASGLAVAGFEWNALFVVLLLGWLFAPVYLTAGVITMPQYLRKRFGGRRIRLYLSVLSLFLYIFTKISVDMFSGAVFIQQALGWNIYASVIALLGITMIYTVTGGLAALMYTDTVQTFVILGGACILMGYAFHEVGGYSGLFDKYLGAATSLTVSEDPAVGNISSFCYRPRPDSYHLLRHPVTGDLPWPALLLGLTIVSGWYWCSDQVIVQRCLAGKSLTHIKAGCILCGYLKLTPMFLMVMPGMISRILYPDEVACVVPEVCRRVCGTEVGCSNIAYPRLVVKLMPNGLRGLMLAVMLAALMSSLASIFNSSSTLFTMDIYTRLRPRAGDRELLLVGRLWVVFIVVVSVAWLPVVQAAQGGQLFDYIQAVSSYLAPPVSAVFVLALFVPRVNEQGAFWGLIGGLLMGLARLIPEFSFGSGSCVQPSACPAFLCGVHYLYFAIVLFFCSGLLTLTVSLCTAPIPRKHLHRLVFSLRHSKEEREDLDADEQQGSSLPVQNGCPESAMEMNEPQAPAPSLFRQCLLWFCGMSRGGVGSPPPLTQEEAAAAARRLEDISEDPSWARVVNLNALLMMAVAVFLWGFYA

This assay concerns the target human SGLT2 (Homo sapiens (Human), UniProt P31639). As to the kind of experiment: hSGLT2 inhibitory activity, sodium-dependent 14C-AMG glucose transport assay in CHO cells expressing hSGLT2. The settings on record: 14C-AMG uptake, CHO cells expressing hSGLT2, 37° C. for 2 h. In kind it is cell-based. Put shortly: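 Stably transfected CHO cells preincubated 10 min at 37 °C in Na⁺-free choline buffer, then 2 h at 37 °C in NaCl uptake buffer (pH 7.4) with 1 mM unlabeled AMG plus 8 uM ¹⁴C-AMG and inhibitor or DMSO. Washed cells counted by liquid scintillation.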
Compound `Cn1cccc1-c1nnc(Cc2cc([C@@H]3O[C@H](CO)[C@@H](O)[C@H](O)[C@H]3O)ccc2Cl)s1` [Example 11, (2S,3R,4R,5S,6R)-2-(4-Chloro-3-((5-(1-methyl-1H-pyrrol-2-yl)-1,3,4-thiadiazol-2-yl)methyl)phenyl)-6-(hydroxymethyl)-tetrahydro-2H-pyran-3,4,5-triol] had an IC50 of 119 nM. The result for `OC[C@H]1O[C@@H](c2ccc(Cl)c(Cc3nnc(CC(F)(F)F)s3)c2)[C@H](O)[C@@H](O)[C@@H]1O` [Example 39, (2S,3R,4R,5S,6R)-2-(4-Chloro-3-((5-(2,2,2-trifluoroethyl)-1,3,4-thiadiazol-2-yl)methyl)phenyl)-6-(hydroxymethyl)tetrahydro-2H-pyran-3,4,5-triol] reads 758 nM. The result for `Cc1ccc(-c2nnc(Cc3cc(C4O[C@H](CO)[C@@H](O)[C@H](O)[C@H]4O)ccc3Cl)s2)cc1` (stereo partly drawn) [Example 22, (3R,4R,5S,6R)-2-(4-chloro-3-((5-p-tolyl-1,3,4-thiadiazol-2-yl)methyl)phenyl)-6-(hydroxymethyl)-tetrahydro-2H-pyran-3,4,5-triol] reads 103 nM; that for `OC[C@H]1O[C@@H](c2ccc(Cl)c(Cc3nncc(-c4ccccc4)n3)c2)[C@H](O)[C@@H](O)[C@@H]1O` [Example 90, (2S,3R,4R,5S,6R)-2-(4-Chloro-3-((5-phenyl-1,2,4-triazin-3-yl)methyl)phenyl)-6-(hydroxymethyl)tetrahydro-2H-pyran-3,4,5-triol], 402 nM; that for `OC[C@H]1O[C@@H](c2ccc(Cl)c(Cc3nnc(-c4ccccn4)s3)c2)[C@H](O)[C@@H](O)[C@@H]1O` [Example 15, (2S,3R,4R,5S,6R)-2-(4-Chloro-3-((5-(pyridin-2-yl)-1,3,4-thiadiazol-2-yl)methyl)phenyl)-6-(hydroxymethyl)tetrahydro-2H-pyran-3,4,5-triol], 30.3 nM. The result for `COc1cc(Cl)c(Cc2nnc(-c3ccco3)s2)cc1[C@@H]1O[C@H](CO)[C@@H](O)[C@H](O)[C@H]1O` [Example 97, (2S,3R,4R,5S,6R)-2-(4-Chloro-5-((5-(furan-2-yl)-1,3,4-thiadiazol-2-yl)methyl)-2-methoxyphenyl)-6-(hydroxymethyl)-tetrahydro-2H-pyran-3,4,5-triol] reads 5.55 nM.

Regarding `OC[C@H]1O[C@@H](c2ccc(Cl)c(Cc3nnc(-c4ccccc4)s3)c2)[C@H](O)[C@@H](O)[C@@H]1O` [Example 28, (2S,3R,4R,5S,6R)-2-(4-Chloro-3-((5-phenyl-1,3,4-thiadiazol-2-yl)methyl)phenyl)-6-(hydroxymethyl)-tetrahydro-2H-pyran-3,4,5-triol], half-maximal inhibition (IC50) was put at 16.6 nM.

These data come from US8541380B2, “C-aryl glucoside SGLT2 inhibitors and pharmaceutical compositions comprising same” (Green Cross Corporation, priority 2009, dated 2013).
